Series [1] in a line: Cerebral and plasma pharmacokinetic profile after oral administration in mice. The series is classed as in vivo, male C57Bl6 mouse. The settings on record: oral administration 10 mg/kg in mice; for Kp: male, C57Bl6, mouse, brain/plasma, read-out: Ratio AUCbrain/AUCplasma; for AUCbrain: AUC0-t, up to 8 h. How it is done: The protocol used was as follows:
Male C57Bl6 mice (25-30 g) from Janvier, Le Genest-St-Isle, France, were used for this study (12 mice per dose).
The animals were fed with standard rodent feed (Purina Mills, St. Louis, Mo.), and were placed in cages and subjected to 12 h/12 h light/dark cycles, the room temperature being maintained at 22±2° C. and the humidity level at 55±10%.
The mice were not fasted before administration. Water was supplied ad libitum throughout the study.
The test compound was administered orally at 10 mg/kg.
For oral administration at 10 mg/kg, the animals were fed by gavage with 10 mL/kg of a suspension of the test compound, prepared in 1% methylcellulose 400 cp.
The animals were sacrificed under anaesthesia at times 15 min, 30 min, 1 h, 3 h, 6 h and 8 h after gavage.
At each time, and on each sacrificed animal, the blood was collected and the brain was removed.
1 mL of blood collected in 1.5 mL tubes containing 20 μL of evaporated anticoagulant (solution of sodium heparinate at 1000 UI/mL) was centrifuged at 4500 g for 3 min to give approximately 400 μL of plasma. The plasma was divided into 2 aliquots of 200 μL, which were stored at −20° C. until extraction by protein precipitation, followed by analysis by liquid chromatography coupled with tandem mass spectrometry (LC-MS/MS) for the quantification of the test compound.
Immediately after their removal, the brains were plunged into liquid nitrogen and then stored at −20° C. for analysis. The brains were subsequently ground in the presence of aqueous/organic solvent mixture to give a homogenate. These homogenates were subsequently centrifuged and the test compound was extracted from the resulting supernatant, by liquid-liquid extraction, and then quantified by LC-MS/MS.
The pharmacokinetic parameters were determined on the basis of a non-compartmental approach in Excel. The area under the curve (AUC0-t) was determined by the linear trapezoidal method.

In series [2] the target is T1, hNurr1_RXRαFL (NURR-1/RXRα heterodimer) (Homo sapiens, UniProt P19793).
T1 construct: hNurr1_RXRαFL
As to the kind of experiment: Transactivation assay, NURR-1-Gal4/RXRα luciferase reporter in Cos-7 cells. The format is cell-based. The settings on record: for Emax: COS-7, level of induction relative to XCT0135908 at 2×10^-5 M = 100%, read-out: Eff hNurr1_RXRαFL (efficacy relative to the reference XCT0135908); for EC50: Cos-7 cells, Gal4 luciferase reporter. The procedure: (§1) To start with, using an in vitro assay, the capacity of the compounds according to the invention to behave as an activator of the heterodimers formed by the NURR-1 nuclear receptor and the RXR nuclear receptors was measured.
(§2) A transactivation assay was used as a primary screening test. Cos-7 cells were co-transfected with a plasmid expressing a chimera of the human receptor NURR-1-Gal4, a plasmid expressing the RXR human receptor (RXRα or RXRγ receptor) and a reporter plasmid 5Gal4pGL3-TK-Luc. The transfections were carried out using a chemical agent (Jet PEI).
(§3) The transfected cells were distributed in 384-well plates and left to stand for 24 hours.
(§4) After 24 hours, the culture medium was changed. The test products were added (final concentration between 10^−4 and 3.10^−10 M) in the culture medium. After incubation overnight, the expression of luciferase was measured after addition of “SteadyGlo” in accordance with the manufacturer's (Promega) instructions.
(§5) 4-[[6-Methyl-2-phenyl-5-(2-propenyl)-4-pyrimidinyl]amino]benzoic acid (called XCT0135908) at 2×10^−5 M (RXR agonist) was used as reference.
(§6) The levels of induction were calculated in relation to the basal activity of each heterodimer. The results were expressed as a percentage of the level of induction relative to the level of induction obtained with the reference (the level of induction of the reference is arbitrarily equal to 100%).

Series [3] concerns mice treated with 1-methyl-4-phenyl-1,2,3,6-tetrahydropyridine (MPTP). As to the kind of experiment: Neuroprotection in MPTP-treated mice, striatal dopamine. Particulars: oral, twice daily for 11 days; MPTP 20 or 25 mg/kg i.p. for 5 days; FIGS. 1 to 3. The format is in vivo, male C57BL6/J mice. How it is done:
The compound of Example 2 was tested on a model of mice treated with 1-methyl-4-phenyl-1,2,3,6-tetrahydropyridine (MPTP), in order to confirm its potential activity. MPTP is a neurotoxin which gives rise to permanent symptoms of Parkinson's disease by destroying certains neurons in the substantia nigra of the brain. The protocol used was as follows.
Male C57BL6/J mice, aged 10-12 weeks at the beginning of the studies, were divided into groups of 8 animals. The compound was administered orally and twice daily for 11 days in total. Administration was commenced 3 days before treatment with the MPTP toxin at 20 or 25 mg/kg. MPTP was administered once daily by intraperitoneal injection for 5 days. The administration of the test compound was continued for 3 days after the treatment with MPTP. One group of mice received the vehicle alone (0.5% methylcellulose solution). The animals were euthanized after the final gavage, and the striatum was removed. The dopamine was extracted from the striatum, and the amount of dopamine (DA), expressed in ng per g of striatum (mean±SEM), was measured by high-performance liquid chromatography (HPLC) with electrochemical detection.
The results obtained were reported in attached FIGS. 1 to 3.

The target in series [4] is T2, hNurr1_RXRγFL (NURR-1/RXRγ heterodimer) (Homo sapiens, UniProt P48443).
T2 construct: EC50 hNurr1_RXRγFL; other: Cos-7 cells, Gal4 luciferase reporter; other: level of induction relative to XCT0135908 at; hNurr1_RXRγFL
As to the kind of experiment: Transactivation assay, NURR-1-Gal4/RXRγ luciferase reporter in Cos-7 cells. The settings on record: for Emax: COS-7, level of induction relative to XCT0135908 at 2×10^-5 M = 100%, read-out: Eff hNurr1_RXRγFL (efficacy relative to the reference XCT0135908); for EC50: Cos-7 cells, Gal4 luciferase reporter. The format is cell-based. The procedure: as §1, §2, §3, §4, §5, §6
For orientation: In a reporter assay the amount or activity of a reporter protein is the signal.

By EC50 is commonly meant the concentration giving half of the maximal effect. Lower therefore signals an effect from little substance.

T2 sequence (P48443 whole entry, the tested form may be a part): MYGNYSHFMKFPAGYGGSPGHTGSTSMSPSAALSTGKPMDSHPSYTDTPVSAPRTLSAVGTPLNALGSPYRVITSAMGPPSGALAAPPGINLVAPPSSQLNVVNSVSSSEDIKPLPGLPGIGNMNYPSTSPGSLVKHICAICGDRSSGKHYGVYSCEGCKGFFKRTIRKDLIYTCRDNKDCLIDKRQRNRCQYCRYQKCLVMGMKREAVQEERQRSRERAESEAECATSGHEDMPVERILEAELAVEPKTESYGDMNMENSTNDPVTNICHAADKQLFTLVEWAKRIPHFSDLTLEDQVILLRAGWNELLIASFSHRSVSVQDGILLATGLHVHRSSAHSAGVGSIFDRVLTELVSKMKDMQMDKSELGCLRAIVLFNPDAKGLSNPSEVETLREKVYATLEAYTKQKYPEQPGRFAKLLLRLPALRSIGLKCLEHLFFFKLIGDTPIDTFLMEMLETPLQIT
T2 sequence (P43354 328-598 partner): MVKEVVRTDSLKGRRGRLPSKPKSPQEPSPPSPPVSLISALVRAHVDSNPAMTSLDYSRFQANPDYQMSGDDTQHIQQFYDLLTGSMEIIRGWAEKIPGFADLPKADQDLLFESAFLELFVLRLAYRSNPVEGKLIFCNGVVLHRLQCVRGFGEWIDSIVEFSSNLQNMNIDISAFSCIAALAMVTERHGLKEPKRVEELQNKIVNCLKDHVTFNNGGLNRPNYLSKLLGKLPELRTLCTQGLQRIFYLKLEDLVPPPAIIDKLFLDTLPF
T1 sequence (P43354 328-598): as the sequence (P43354 328-598 partner) above
T1 sequence (P19793 whole entry): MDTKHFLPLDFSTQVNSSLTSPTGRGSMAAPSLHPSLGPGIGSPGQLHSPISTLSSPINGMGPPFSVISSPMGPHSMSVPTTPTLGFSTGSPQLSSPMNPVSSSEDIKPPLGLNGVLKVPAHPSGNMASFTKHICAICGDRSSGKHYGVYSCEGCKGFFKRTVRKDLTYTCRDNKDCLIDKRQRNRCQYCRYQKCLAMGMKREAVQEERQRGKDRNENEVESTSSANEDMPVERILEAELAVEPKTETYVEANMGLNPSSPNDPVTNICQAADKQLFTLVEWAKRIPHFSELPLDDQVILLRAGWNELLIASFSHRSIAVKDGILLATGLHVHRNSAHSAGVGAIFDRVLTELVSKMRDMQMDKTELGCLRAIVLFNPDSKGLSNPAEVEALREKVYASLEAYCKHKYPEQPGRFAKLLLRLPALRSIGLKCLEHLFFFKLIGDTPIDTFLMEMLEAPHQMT

Turning to `CC(C)c1cccc(S(=O)(=O)n2c(CCCC(=O)O)cc3cc(C(F)(F)F)ccc32)c1` [Example 2, 1-[[3-(1-Methylethyl)phenyl]sulphonyl]-5-(trifluoromethyl)-1H-indole-2-butanoic acid], in series [1], the Kp stood at 0.67 and the AUCbrain stood at 3318. Also, in series [2], the Emax was 86% and it took 73 nM to reach a half-maximal effect (EC50). Further, the “Effect on MPTP-induced reduction of dopamine level in the striatum” value (shortened to “Effect on MPTP-induced reduction”) in series [3] was “reduce, in a dose-dependent way, the action of MPTP”. Besides, in series [4], the Emax worked out at 79% and it took 113 nM to reach a half-maximal effect (EC50).
For `CC(C)(C)c1cccc(S(=O)(=O)n2c(CCCC(=O)O)cc3cc(C(F)(F)F)ccc32)c1` [Example 8, 1-[[3-(1,1-Dimethylethyl)phenyl]sulphonyl]-5-(trifluoromethyl)-1H-indole-2-butanoic acid], in series [1], the Kp was 0.87 and the AUCbrain is recorded as 2371. In series [2], the Emax is 100% and the EC50 came out at 26 nM. The “Effect on MPTP-induced reduction” value in series [3] was “reduce, in a dose-dependent way, the action of MPTP”. In series [4], the Emax came out at 70% and the midpoint of the response, the EC50, lay at 20 nM.
Regarding `CC(C)(C)c1cccc(S(=O)(=O)n2c(CCCCC(=O)O)cc3cc(C(F)(F)F)ccc32)c1` [Example 10, 1-[[3-(1,1-Dimethylethyl)phenyl]sulphonyl]-5-(trifluoromethyl)-1H-indole-2-pentanoic acid], in series [1], the Kp was 0.8 and the AUCbrain was found to be 1689. Besides, in series [2], the Emax came out at 104% and the EC50 stood at 55 nM. In series [3], the “Effect on MPTP-induced reduction” value is “reduce, in a dose-dependent way, the action of MPTP”. Besides, in series [4], the Emax worked out at 88% and the midpoint of the response, the EC50, lay at 77 nM.

These data come from US8575210B2, “Use of indole derivatives as NURR-1 activators for treating parkinson's disease” (Laboratoires Fournier SA, priority 2008, dated 2013).
